Experimental data from ChEMBL document CHEMBL1201862, “PubChem BioAssay data set” (2004).
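Dose response: 5 concentrations. Exposure: 48 h. Format: 96-well plates. Endpoint: linear interpolation; highest concentration if not reached. The concentration for 50% growth inhibition is given as GI50.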 The source made the active and inactive calls. Rule as the data show it: active = GI50 up to about 1.1 µM and inactive = higher.

Legend:
Test in all cases: NCI anticancer screen, dose series, 48 h
[1] = tested on: OVCAR-3
[2] = tested on: SK-MEL-28
[3] = tested on: KM12
[4] = tested on: DLD-1
[5] = tested on: RXF 393
[6] = tested on: IGROV-1
[7] = tested on: K562
[8] = tested on: KM-20L2
[9] = tested on: COLO 205
[10] = tested on: SNB-75
[11] = tested on: HCT-15
[12] = tested on: NCI-H23
[13] = tested on: TK-10
[14] = tested on: U-251
[15] = tested on: OVCAR-4
[16] = tested on: M14
[17] = tested on: SNB-78
[18] = tested on: HCT-116
[19] = tested on: SNB-19
[20] = tested on: ACHN
[21] = tested on: EKVX
[22] = tested on: HL-60
[23] = tested on: Malme-3M
[24] = tested on: DMS-273
[25] = tested on: HOP-18
[26] = tested on: SK-MEL-5
[27] = tested on: A549
[28] = tested on: SK-OV-3
[29] = tested on: LXFL 529
[30] = tested on: M19-MEL
[31] = tested on: OVCAR-8
[32] = tested on: OVCAR-5
[33] = tested on: A498
[34] = tested on: UACC-62
[35] = tested on: SR
[36] = tested on: SF-268
[37] = tested on: NCI-H460
[38] = tested on: LOX IMVI
[39] = tested on: 786-0
[40] = tested on: HCC 2998
[41] = tested on: SN12C
[42] = tested on: CCRF-CEM
[43] = tested on: SF-295
[44] = tested on: MOLT-4
[45] = tested on: UO-31
[46] = tested on: HOP-62
[47] = tested on: SF-539
[48] = tested on: HT-29
[49] = tested on: DMS-114
[50] = tested on: RPMI-8226
[51] = tested on: HOP-92
[52] = tested on: UACC-257
[53] = tested on: XF498
[54] = tested on: SW-620
[55] = tested on: RXF 631
[56] = tested on: NCI-H522
[57] = tested on: CAKI-1
[58] = tested on: SK-MEL-2
[59] = tested on: NCI-H226

Cc1ccccc1C(=O)Oc1ccc(OCc2ccccc2)cc1
GI50 [1]: > 100 µM (inactive)
GI50 [2]: > 100 µM (inactive)
GI50 [3]: > 100 µM (inactive)
GI50 [4]: > 100 µM (inactive)
GI50 [5]: 39.1 µM (inactive)
GI50 [6]: > 100 µM (inactive)
GI50 [7]: 47.6 µM (inactive)
GI50 [8]: 75.5 µM (inactive)
GI50 [9]: > 100 µM (inactive)
GI50 [10]: > 100 µM (inactive)
GI50 [11]: 38.6 µM
GI50 [12]: 66.8 µM (inactive)
GI50 [13]: > 100 µM (inactive)
GI50 [14]: > 100 µM (inactive)
GI50 [15]: > 100 µM (inactive)
GI50 [16]: > 100 µM (inactive)
GI50 [17]: > 100 µM (inactive)
GI50 [18]: 53.5 µM (inactive)
GI50 [19]: > 100 µM (inactive)
GI50 [20]: 9.18 µM (inactive)
GI50 [21]: > 100 µM (inactive)
GI50 [22]: 5.82 µM (inactive)
GI50 [23]: > 100 µM (inactive)
GI50 [24]: > 100 µM (inactive)
GI50 [25]: > 100 µM (inactive)
GI50 [26]: 48.6 µM (inactive)
GI50 [27]: 35.2 µM (inactive)
GI50 [28]: > 100 µM (inactive)
GI50 [29]: 87.9 µM (inactive)
GI50 [30]: > 100 µM (inactive)
GI50 [31]: > 100 µM (inactive)
GI50 [32]: 45.3 µM (inactive)
GI50 [33]: 34.5 µM (inactive)
GI50 [34]: 83.8 µM (inactive)
GI50 [35]: 19.1 µM (inactive)
GI50 [36]: > 100 µM (inactive)
GI50 [37]: 39.1 µM (inactive)
GI50 [38]: 99.1 µM (inactive)
GI50 [39]: 51.2 µM (inactive)
GI50 [40]: 35.9 µM (inactive)
GI50 [41]: 93.8 µM (inactive)
GI50 [42]: 22.2 µM (inactive)
GI50 [43]: > 100 µM (inactive)
GI50 [44]: 9.44 µM (inactive)
GI50 [45]: 37.2 µM (inactive)
GI50 [46]: > 100 µM (inactive)
GI50 [47]: > 100 µM (inactive)
GI50 [48]: 63.8 µM (inactive)
GI50 [49]: 28.9 µM (inactive)
GI50 [50]: 25.6 µM (inactive)
GI50 [51]: > 100 µM (inactive)
GI50 [52]: 95.7 µM (inactive)
GI50 [53]: > 100 µM (inactive)
GI50 [54]: > 100 µM (inactive)

CC(=O)n1ccc2c(Cl)ncnc21
GI50 [1]: > 100 µM (inactive)
GI50 [2]: > 100 µM (inactive)
GI50 [3]: > 100 µM (inactive)
GI50 [4]: > 100 µM (inactive)
GI50 [5]: 0.038 µM (active)
GI50 [6]: > 100 µM (inactive)
GI50 [7]: > 100 µM (inactive)
GI50 [8]: > 100 µM (inactive)
GI50 [9]: > 100 µM (inactive)
GI50 [10]: < 0.01 µM (active)
GI50 [11]: > 100 µM
GI50 [12]: > 100 µM (inactive)
GI50 [13]: > 100 µM (inactive)
GI50 [14]: > 100 µM (inactive)
GI50 [16]: > 100 µM (inactive)
GI50 [17]: > 100 µM (inactive)
GI50 [18]: > 100 µM (inactive)
GI50 [55]: > 100 µM (inactive)
GI50 [19]: > 100 µM (inactive)
GI50 [20]: > 100 µM (inactive)
GI50 [21]: > 67.3 µM (inactive)
GI50 [22]: > 100 µM (inactive)
GI50 [24]: > 100 µM (inactive)
GI50 [26]: > 100 µM (inactive)
GI50 [27]: > 100 µM (inactive)
GI50 [28]: > 100 µM (inactive)
GI50 [29]: > 100 µM (inactive)
GI50 [30]: > 100 µM (inactive)
GI50 [31]: > 100 µM (inactive)
GI50 [33]: > 100 µM (inactive)
GI50 [56]: > 37.6 µM (inactive)
GI50 [34]: > 100 µM (inactive)
GI50 [35]: > 100 µM (inactive)
GI50 [36]: > 100 µM (inactive)
GI50 [37]: > 100 µM (inactive)
GI50 [38]: > 100 µM (inactive)
GI50 [39]: > 100 µM (inactive)
GI50 [57]: > 61.4 µM (inactive)
GI50 [40]: > 100 µM (inactive)
GI50 [41]: > 100 µM (inactive)
GI50 [42]: > 100 µM (inactive)
GI50 [58]: > 100 µM (inactive)
GI50 [43]: > 100 µM (inactive)
GI50 [44]: > 100 µM (inactive)
GI50 [46]: > 100 µM (inactive)
GI50 [47]: > 100 µM (inactive)
GI50 [48]: > 100 µM (inactive)
GI50 [49]: > 100 µM (inactive)
GI50 [50]: > 100 µM (inactive)
GI50 [51]: > 100 µM (inactive)
GI50 [52]: > 100 µM (inactive)
GI50 [54]: > 100 µM (inactive)

N#CCc1ccccc1/C(C#N)=C1/OC(=N)C(c2ccccc2CC#N)C1=O (stereo not drawn)
GI50 [59]: > 100 µM (inactive)
GI50 [1]: > 100 µM (inactive)
GI50 [2]: > 100 µM (inactive)
GI50 [3]: > 100 µM (inactive)
GI50 [6]: > 100 µM (inactive)
GI50 [7]: > 100 µM (inactive)
GI50 [8]: > 100 µM (inactive)
GI50 [10]: > 100 µM (inactive)
GI50 [13]: > 100 µM (inactive)
GI50 [16]: > 100 µM (inactive)
GI50 [18]: > 100 µM (inactive)
GI50 [55]: > 100 µM (inactive)
GI50 [20]: > 100 µM (inactive)
GI50 [21]: > 100 µM (inactive)
GI50 [22]: > 100 µM (inactive)
GI50 [24]: > 100 µM (inactive)
GI50 [26]: > 100 µM (inactive)
GI50 [27]: > 100 µM (inactive)
GI50 [28]: > 100 µM (inactive)
GI50 [29]: 43.2 µM (inactive)
GI50 [30]: > 100 µM (inactive)
GI50 [56]: 47.4 µM (inactive)
GI50 [34]: 42.2 µM (inactive)
GI50 [35]: > 100 µM (inactive)
GI50 [36]: > 100 µM (inactive)
GI50 [38]: > 100 µM (inactive)
GI50 [39]: > 100 µM (inactive)
GI50 [57]: > 100 µM (inactive)
GI50 [42]: > 100 µM (inactive)
GI50 [43]: > 100 µM (inactive)
GI50 [44]: 57.8 µM (inactive)
GI50 [47]: > 100 µM (inactive)
GI50 [48]: 92 µM (inactive)
GI50 [50]: > 100 µM (inactive)
GI50 [51]: > 100 µM (inactive)
GI50 [52]: > 100 µM (inactive)
GI50 [54]: > 100 µM (inactive)
